Test results from US10463669B2, “Composition for treating or preventing liver cancer” (Seoul National University R&DB Foundation, priority 2016, dated 2019).

Columns and labels:
[1] = tested on: PI3K isotype p110δ expression in HCC cells; settings: HCC cells after treatment with H2O2
Protocol: Medium was exchanged every day, and the aforementioned cells were cultured for 4 days in 300 μmol/L hydrogen peroxide (H2O2) (Sigma Aldrich; H1009). In several experiments, the cells were treated for 1 hour with 5 mmol/L N-acetylcysteine (NAC) (Sigma Aldrich; A7250), 25 μmol/L idelalisib (LC Laboratoties, Woburn, Mass., USA; I-7447), 25 μmol/L perifosine (LC Laboratoties, Woburn, Mass., USA; P-6522), or 30 μmol/L GSK3β inhibitor (GSK3β inhibitor XI) (Santa Cruz; sc-204770) (31) before adding H2O2. Furthermore, sterilized distilled water (pH 7.0) was used as a negative control (i.e., mock treatment).
PCR was carried out by using TOPrealm qPCR 2×PreMIX (SYBR Green with high ROX) (Enzynomics, Daejeon, Korea; RT501M) and ABI Prism 7300 thermal cycler (Applied Biosystems, Foster City, Calif., USA). […] To examine the primer specificity, a dissociation step was additionally included.

[2] = tested on: THLE-3 cells; experiment: Cell proliferation / cell viability, MTS assay; format: cell-based, human
Protocol: THLE-3 cell line (immortalized human liver endothelial cell line produced by infection with SV40 large T antigen) was obtained from ATCC (American Type Culture Collection). Cell line authentication by KCLB and ATCC was carried out by using DNA fingerprinting as a short tandem repeat analysis. All cell lines were tested for mycoplasma contamination. […] As it has been recommended by the ATCC manual, THLE-3 cells were cultured in BEGM (Lonza) medium complemented with 10% fetal bovine serum in a humidified 5% CO2 incubator at 37° C.
As it has been described before (10), the cell viability was measured by using Cell Titer 96 MTS (Promega). Cells were sewn in an amount of 500 to 1000 cells per well, and then treated for 96 hours at a pharmaceutical concentration as described in each graph. Each analysis was repeated 3 times at least. After plotting the data, IC50 values were obtained by using GraphPad software. By using Flexstation 3 multimode plate reader (Molecular Devices), optical density showing formazan production was measured at 490 nm.

[3] = tested on: telomere length in HCC cell lines (Huh7 and Hep3B); experiment: Telomere length (Southern blot, immunoFISH, Flow FISH, quantitative PCR); format: cell-based, human
Protocol: Volume of the hybridization buffer was adjusted to 100 μl per 10^5 cells. Next, each sample was cultured for 10 minutes in a water bath at 85° C. […] Total 15,000 to 20,000 nuclei were analyzed for the each separate culture. Telomere fluorescence intensity of the all nuclei at […] phase of the cell cycle was measured by using BD FACS Calibur flow cytometer (Becton Dickinson, Franklin Lakes, N.J., USA) in which CELLQUEST software is used. The established ImmunoFISH protocol (Plentz R R, et al., Hepatology. 2007; 45: 968-76) was used with slight modifications. The paraffin-embedded section was subjected to de-paraffinization using xylene, and then rehydrated using ethanol gradient. Antigen retrieval was carried out by boiling in 100 mmol/L sodium citrate (pH 6.0) for 10 minutes in a microwave. After permeation of proteinase K (15 μg/mL in PBS [pH 7.4]) for 20 minutes at 37° C., 8-oxo-dG-specific antibody (1:100, Abcam, Cambridge, Mass., USA; ab62623) was subjected to 1% BSA dilution in PBS 0.1% Triton X-100 and cultured overnight at room temperature. After washing, the slide was treated with Alexa 647 secondary antibody for 1 hour. […] After denaturation for 6 minutes at 90° C., the sample was hybridized for 2 hours at dark place. […] After washing, the slide was rinsed with PBS containing DAPI, and then sealed with a DAPI sealing agent (mounting medium) (Vector Laboratories, Burlingame, Calif., USA). Simultaneously, the inventors of the present invention carried out centromere staining as an internal control for telomere staining and 8-oxo-dG staining. […] For quantification of the telomere fluorescence intensity, centromere fluorescence intensity, and 8-oxo-dG fluorescence intensity, the same exposure time was employed. The telomere fluorescence level and 8-oxo-dG fluorescence level of tumor tissues were calculated by division of the fluorescence level in non-tumor tissues corresponding to 5 random fields. The image analysis was carried out by using Image-Pro plus 6.0 software (Media Cybernetics, Inc., Rockville, Md., USA). Telomere length was determined by using the non-radioactive chemical fluorescence TeloTAGGG telomere length assay (Roche; Cat. No. 12 209 136 001) according to the manual. Genomic DNA was separated from HCC cells using GeneJET Genomic DNA Purification Kit (Thermo Scientific; #K0721), and then 4 μg of the genomic DNA was digested for 16 hours at 37° C. with 20 units of […] digested DNA was subjected to 0.8% agarose gel electrophoresis, and then transferred to a positively charged nylon membrane using capillary transfer. The blotted DNA was hybridized for 16 hours at 42° C. with a digoxigenin (DIG)-labeled probe that is specific to the telomere repeat. After that, it was cultured for 30 minutes at room temperature with DIG-specific antibody conjugated to an alkaline phosphatase Based on quantitative PCR analysis using the genomic DNA extracted from cells, relative telomere repeat copy number (T) and single copy number (S) were determined, and the calculation was made like previous method in which T/S ratio is continuously modified (Cawthon R M. Telomere length measurement by a novel monochrome multiplex quantitative PCR method. Nucleic Acids Res. 2009; 37: e21).

Compound | p110δ expression (only isotype among p110α, p110β, p110δ, p110γ) [1] | cells that did not survive ([2]; THLE-3 cells exposed to 150 μmol/L H2O2) | telomere length increased by ([3]; HCC cells treated with 300 μmol/L H2O2, compared to control HCC cells not exposed to H2O2) | IC50 ([2]; Homo sapiens, THLE3, MTS assay, treated for 96 hours) | telomere length reduced by ([3]; 300 μmol/L H2O2-treated HCC cells plus idelalisib, compared to HCC cells treated with H2O2 only) | ROS-mediated increase in telomere length ([3]; H2O2-treated cells) | telomere length ([3]; HCC cells, no H2O2)
OO [H2O2, hydrogen peroxide] | increased | 85% | 25%-30% |  |  |  | 
CC[C@H](Nc1ncnc2nc[nH]c12)c1nc2cccc(F)c2c(=O)n1-c1ccccc1 [idelalisib, 5-fluoro-3-phenyl-2-[(1S)-1-(7H-purin-6-ylamino)propyl]-4(3H)-quinazolinone] |  |  |  | > 200 µM | 40-45% | almost completely inhibited | reduced
